From patent US12063902B2, “Method of regenerating cannabis” (The State of Israel, Ministry of Agriculture & Rural …, priority 2018, dated 2024)

Legend:
Cannabis shoots = test: Rooting (root induction) of shoots; type: cell-based, Cannabis sativa L.
Description: Shoot was cultivated individually in a tube with root induction (RI) medium composed of half strength MS medium (½MS) supplemented with 100 mg/l myo-inositol, 1 mg/l thiamine-HCl, 90 mg/l phloroglucinol, 2% sucrose (w/v), 0.25% activated charcoal (AC), with or without IBA (at different concentrations (0, 1, 2 mg/l) and 0.8% agar. Soil mixture was moistened by soaking the rooting cylinders in liquid RI medium supplemented with either 0, 1, or 2 mg/l IBA. Each treatment consisted of 10 shoots and results were scored after 4 weeks. Each experiment was repeated three times.
To obtain root induction, different concentrations of IBA were examined. The shoots were placed in a tube containing rooting medium containing 0, 1, or 2 mg/l IBA. Using this method with 2 mg/l IBA, about 85% of the shoots formed roots. However, only low percentage of these plants successfully acclimatized under greenhouse conditions. According to the second approach, shoots were cultured directly in rooting cylinders. After 4 weeks, 100% root formation was achieved, independently of the concentration of auxin used (FIGS. 5A-5C). These plants had better hardening and underwent easier acclimatization in greenhouse conditions. In-vitro clonal propagation, rooting and acclimatized plantlet production was established for 10 different Cannabis cultivars. […]

Cannabis explants = test: Shoot regeneration in tissue culture with "regeneration premium treatment"; type: cell-based, Cannabis sativa
Description: Regeneration from Cannabis plant material using tissue culture, germinated leaves, cotyledons and hypocotyls were used for regeneration. The plants were placed on a petri dish containing 20 ml regeneration media using premium treatment with cuticle nicking enzymes: MS salt mixture, supplemented with 100 mg/l myo-inositol, 1 mg/l thiamine-HCl, 2% sucrose (w/v) at pH 5.7) with and without 5 ml pectic enzymes reaction mixture (0.25 ml 10% enzyme fungal mix of pectin and cutinase 0.25 ml 200 mM Tris-HCl).
Three youngest expanding leaves isolated from 3 to 4 weeks old plants were with and placed on regeneration medium with cuticle nicking enzymes (Murashige and Skoog (MS) medium salt mixture, containing 0.05-5.0 μM thidiazuron, supplemented with 100 mg/l myo-inositol, 1 mg/l thiamine-HCl, 2% sucrose (w/v) at pH 5.7, with 5 ml pectic enzymes reaction mixture (0.25 ml 10% cuticle nicking enzyme in 0.25 ml 200 mM Tris-HCl). The cultures were kept for 7 days in low light intensity (2.5 mmol/m2 s) followed by exposure to high light intensity (40 mmol/m2 s) at 25° C., in a 16/8 h photoperiod. Leaf explants were examined after 14 and 21 days and the percentage of explant producing shoots were calculated. […]

[1] = test system: Cannabis leaf segment explants; test: Somatic embryogenesis in liquid culture; type: cell-based, Cannabis sativa; conditions: liquid Gamborg B5 medium
Description: Leaf segments from tissue culture grown on the solid medium (1.5 cm diameter and 4-5 cm long) of two Cannabis cultivars (108 and 201) were used. Innermost leaf whorls were cut obliquely (0.5-1.0 cm), injured with sharp scalpel blade in order to achieve callus initiation. Leaf segment, were used as explant for inoculation on MS medium (Murashige and Skoog 1962) supplemented with 2,4-D (4.0 mg/L) and kinetin [Kin] (0.5 mg/L). After 2-3 weeks the cultures were incubated at 25±2 C at 70-80% humidity in dark in liquid Gamborg B5 medium supplemented with 6% sucrose and different plant hormones (Table 1). The media was refreshed every three weeks.
Leaf segments from tissue culture from two different genotypes (108 and 201) have been used as primary explants. The explants were chopped to small pieces (as less as 0.5 mm) and cultivated in liquid Gamborg B5 medium supplemented with 6% sucrose and different plant hormones (Table 1). The media were refreshed every three weeks.
The initiated suspension cultures along with embryos in globular stage (FIGS. 12A-12B) were sub-cultured in the same medium for three weeks. Part of the cultures was transferred to B5 Gamborg media, supplemented with different hormones/chemicals (Table 2) to provoke embryo elongation and further development. The cultures were transferred to fresh media every three weeks.

O=C(O)CCCc1c[nH]c2ccccc12 [IBA, indol-3-butyric acid]
root formation (Cannabis shoots; shoots cultured directly in rooting cylinders, after 4 weeks, independently of the concentration of auxin (0, 1, 2 mg/l IBA)): 100%
shoots formed roots (Cannabis shoots; tube containing rooting medium, 2 mg/l IBA): about 85%

C=C1C[C@]23C[C@@]1(O)CC[C@H]2[C@@]12C=C[C@H](O)[C@@](C)(C(=O)O1)[C@H]2[C@@H]3C(=O)O [gibberellic acid]
shoot growth (Cannabis explants; 7.0 μM gibberellic acid added to medium containing 0.5 μM thidiazuron): slightly increased shoot growth

O=C(Nc1ccccc1)Nc1cnns1 [thidiazuron]
quality and quantity of regenerates (Cannabis explants; 0.5 μM thidiazuron, media treatment with cuticle nicking enzymes): better

CC(C)=CCNc1ncnc2nc[nH]c12 [2iP]
amount of somatic embryos generated ([1]; gyratory shaker at dark): Low amounts of embryos

O=C(Nc1ccccc1)Nc1ccnc(Cl)c1 [CPPU]
somatic embryo initiation ([1]; 10 mg/l, 6% sucrose): essential for the embryo initiation
